For 16 compounds, TGI and GI50 results are on record in PubChem BioAssay (NCI).

Experiment in all cases: DTP human tumour cell line panel, 48 h
The subject of test [1] is K-562 leukemia.
In test [2] the test system is KM12 colon.
Test [3] has as its system MOLT-4 leukemia.
For test [4], the system named is NCI-H23 lung.
For test [5], the system named is OVCAR-5 ovarian.
Test [6] deals with SK-MEL-2 melanoma.
For test [7], the system named is SW-620 colon.
The test system of test [8] is TK-10 renal.
Test [9] relates to U251 CNS.
In test [10] the test system is HL-60(TB) leukemia.

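How tested: cells in 96-well plates exposed to compound for 48 hours at five concentrations. The concentration for 50% growth inhibition is given as GI50. At the TGI there is no net growth.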

On to `C=C1C(=O)O[C@@H]2C[C@@H](C)[C@@H]3[C@@H](OC4OC(COC(C)=O)C(O)C(O)C4O)CC(=O)[C@@]3(C)C[C@H]12` (some centres not stated), for which the TGI in [1] worked out at 3.78 µM; in test [2] it was 22.9 µM; in test [3], 7.4 µM; in test [4], 25.7 µM; in test [5], 8.07 µM; in test [6], 20.7 µM. The values for the TGI in test [7], in test [8] and in [9] were 1.61 µM, 3.36 µM and 19.7 µM, respectively.
On to `Clc1cc(Cl)cc(N2N=C(c3cccc(Nc4ccncc4)c3)CC2c2ccc(Br)cc2)c1` (configuration not stated), for which the GI50 in test [10] was 2.44 µM; in test [1], 2.26 µM; in test [2], 1.69 µM; in test [3], 1.95 µM; in test [4], 1.79 µM; in [5], 1.55 µM. Moreover, the values for the GI50 in [7] and in test [8] were 1.61 µM and 1.86 µM, respectively. Moreover, the TGI in test [10] worked out at 6.08 µM; in test [1] it was 5.69 µM; in test [2] it was 3.18 µM; in [3], 4.44 µM; in test [4], 3.41 µM; in test [5] it was 2.92 µM. Besides, the TGI in [7] worked out at 3.04 µM; in [8] it was 3.6 µM.
Take `Cc1nn2c(/C=C3/C(=O)Nc4ccccc43)c(-c3ccc(Cl)cc3)nc2s1`: the GI50 is greater than 50 µM in [1]; 16.5 µM in test [2]; greater than 50 µM in test [3]; greater than 50 µM in [6]; greater than 50 µM in test [7]; 12.3 µM in test [8]. Besides, the GI50 in test [9] is 9.73 µM. Moreover, the concentration for total growth inhibition (TGI) in test [1] is greater than 50 µM; in test [2], greater than 50 µM; in test [3], greater than 50 µM; in test [6], greater than 50 µM; in [7], greater than 50 µM; in test [8], 32.1 µM. Besides, the TGI in test [9] came to 18.7 µM.
As for `O=C(Nc1ccc2oc(=O)c(C(=O)O)cc2c1)Oc1ccccc1`, the TGI in test [1], in [2], in [3], in test [4], in [5] and in test [6] was greater than 100 µM each time. Besides, the concentration for total growth inhibition (TGI) in test [7], in test [8] and in test [9] was greater than 100 µM each time.
With `Cc1cc(N/N=C/c2nc(-c3ccccc3)oc2C)c2cc(Cl)ccc2n1`, the GI50 in test [3] was 2.04 µM; in test [4] it was 1.7 µM; in test [5] it was 1.62 µM; in test [6], 18.7 µM; in test [7] it was 1.81 µM; in test [8], 1.79 µM. Further, the GI50 in [9] is 1.78 µM. In addition, the TGI in test [3] turned out to be 4.54 µM; in test [4] it was 3.61 µM; in [5], 3.12 µM; in [6], 38.7 µM; in test [7] it was 3.7 µM; in [8], 3.29 µM. In test [9], this compound registered a TGI of 3.34 µM.
With `O=C(O)c1ccc(NS(=O)(=O)c2cccc3cccnc23)cc1`, the GI50 in test [1], in test [2], in test [3], in test [4], in test [5] and in test [6] was greater than 100 µM each time. Also, the GI50 in test [7] and in test [9] was greater than 100 µM throughout. Also, the TGI in [1], in [2], in [3], in test [4], in [5] and in [6] was greater than 100 µM throughout. For the same compound, the TGI in test [7] and in [9] was greater than 100 µM in each case.
For the compound `COc1cc(-c2cn(-c3ccc(Cl)cc3)c(=O)[nH]2)cc(OC)c1OC`, the GI50 was 52.1 µM in test [1]; greater than 100 µM in test [2]; 0.0199 µM in test [3]; greater than 100 µM in test [4]; greater than 100 µM in [5]; greater than 100 µM in test [6]. Moreover, the GI50 in test [7], in test [8] and in [9] was greater than 100 µM throughout. The TGI was greater than 100 µM in [1]; greater than 100 µM in test [2]; 8.86 µM in [3]; greater than 100 µM in test [4]; greater than 100 µM in test [5]; greater than 100 µM in test [6]. For the same compound, the TGI in [7], in [8] and in test [9] was greater than 100 µM throughout.
With `COc1ccc(C(=O)/C=C/c2cc(C(=O)c3cc(OC)c(OC)c(OC)c3)ccc2OC)cc1`, the GI50 in [1] is 2.86 µM; in test [6], 6.04 µM; in [7], 3.07 µM; in test [8], 14 µM; in test [9] it was 3.11 µM. In addition, the TGI in test [1], in test [6], in test [7], in [8] and in test [9] was greater than 100 µM each time.
Take `COc1cc2c(OC)c(c1)CCCC1=CC(=O)C=C(CCC2)C1=O`: the TGI in test [10] is 24.6 µM; in test [1], 34.6 µM; in test [2], 59.6 µM; in test [3] it was 15.7 µM; in [4], greater than 100 µM; in [5], greater than 100 µM. Also, the concentration for total growth inhibition (TGI) in [7] is greater than 77 µM; in test [8] it was greater than 100 µM; in test [9] it was greater than 100 µM.
As for `CC(=O)OC[C@@H]1[C@H]2CC(=O)O[C@H]2C[C@H]1OC(C)=O`, the TGI in test [10], in test [2], in [3], in [5], in test [7] and in test [8] was greater than 100 µM each time. The TGI in test [9] is greater than 100 µM.
On to `CCOC(=O)NC(=O)c1cn(CCCOC(=O)CCCCCCCCC(=O)OCCCn2cc(C(=O)NC(=O)OCC)c(=O)[nH]c2=O)c(=O)[nH]c1=O`, for which the TGI turned out to be 26.4 µM in [10]; 49.8 µM in test [1]; 95.9 µM in test [3]; 60.3 µM in [7]; 57.9 µM in [8]; 41.4 µM in test [9].
As for `O=C(CNC(=O)c1cccc2ccccc12)Nc1ccccc1Oc1ccccc1`, the GI50 in [1] was 0.0704 µM; in test [2], 0.289 µM; in [3], 0.348 µM; in test [4] it was 0.658 µM; in test [5], 0.521 µM; in test [6], 0.272 µM. In addition, the GI50 in test [7] is 0.283 µM; in test [8], 0.619 µM; in test [9] it was 0.328 µM. The TGI in test [1], in test [2], in test [3], in test [4], in test [5] and in test [6] was greater than 10 µM in each case. In addition, the TGI in [7], in [8] and in test [9] was greater than 10 µM in each case.
`CCCCC(=O)[O-].N.N.N.N.N.[Co+3].[O-][Cl+3]([O-])([O-])[O-]`: the GI50 in test [1], in [2], in [3], in [4], in test [5] and in test [6] was greater than 100 µM each time. The GI50 in test [7], in [8] and in test [9] was greater than 100 µM in each case. In addition, the TGI in [1], in [2], in test [3], in test [4], in test [5] and in test [6] was greater than 100 µM each time. Further, the TGI in test [7], in [8] and in [9] was greater than 100 µM each time.
On to `CCOC(=O)C#Cc1ccc(C#CC(=O)OCC)cc1`, for which the TGI in test [10] is 6.34 µM; in [2] it was greater than 21.2 µM; in test [4], greater than 30 µM; in test [5] it was greater than 21.8 µM; in test [7] it was greater than 27.4 µM; in test [8], 17.8 µM.
For `O=[N+]([O-])c1cc(Br)cc2c1[nH]c1ccc(Br)cc12`, the GI50 in [2] was 13.3 µM; in test [4], 8.56 µM; in test [5], 15.5 µM; in test [6], 6.22 µM; in test [7], 7.97 µM; in test [8] it was 2.46 µM. In addition, the GI50 in test [9] was 14.8 µM. Further, the TGI in [2] is greater than 100 µM; in test [4], greater than 100 µM; in test [5] it was greater than 100 µM; in test [6], 41.5 µM; in test [7] it was greater than 100 µM; in test [8] it was 8.48 µM. This compound registered a TGI in test [9] of 93.2 µM.
As to `Cn1c2ccc([N+](=O)[O-])cc2c(=O)c2c(O)cc(O)cc21`, the TGI in test [10], in test [1], in [2], in [3], in test [5] and in test [7] was greater than 100 µM in each case. Moreover, the TGI is greater than 100 µM in [8] and 37.3 µM in test [9].
